In US10400263B2, “Tripeptide rhodamine compound” (Kingston Uninversity Higher Education Corporation, priority 2012, dated 2019):

Assays:
[1] = test system: S. epidermidis; experiment: LGX staphylocoagulase fluorescence assay, S. epidermidis; assay type: cell-based, Staphylococcus Epidermidis; conditions: for fluorescence over the 6 hour time period: S. epidermidis, high and low concentrations
Experimental: (§1) Each sample was rinsed liberally in sterile 1×PBS and varying concentrations of bacterial suspension from 10^0-10^6 were generated by serial dilution in 1×PBS. Additionally, bacterial cultures were furthermore maintained on nutrient agar to assess the coagulase status of the isolate.
(§2) To determine the effects of varying bacterial concentrations with respect to bacterial strains and concentrations of the compounds according to the present invention on staphylocoagulase activity, 100 and 50 μM solutions containing LGX were prepared in 1×PBS with the addition of 0.05 M Tris Buffer and 0.1 M NaCl to maintain a pH of 8.5 using LGX dissolved in MeOH so that final concentration of methanol was no more than 2.5%. Furthermore, an appropriate concentration (100 μM and 50 μM, respectively) of human prothrombin was added to the solution.
The plate reader used was a Fluostar Optima, and the plates used were Nunclon Surface 96 well plates. Positive controls for each experiment was a strain of MRSA, and the negative control for each experiment was a strain of E. coli, both of which were picked at random to ensure there was no bias within the data. A 1:1 ratio of the LGX solution with PBS was also assayed as “LGX alone” sample, which has been designated as a black line on the graphs below. n=3 cultures were assayed in each case. […]
(§3) To determine the effects of varying bacterial concentrations with respect to bacterial strains and LGX concentrations on staphylocoagulase activity, 100 and 50 μM solutions of LGX were prepared in 1×PBS with the addition of 0.05 M Tris Buffer and 0.1 M NaCl to maintain a pH of 8.5 using LGX dissolved in MeOH so that final concentration of methanol was no more than 2.5%. […] The plate reader used was a Fluostar Optima, and the plates used were Nunclon Surface 96 well plates.

[2] = test system: MRSA; experiment: LGX staphylocoagulase fluorescence assay, MRSA isolates; assay type: cell-based, Staphylococcus aureus
Experimental: as §1, §2
(§4) The plate reader used was a Fluostar Optima, and the plates used were Nunclon Surface 96 well plates. Positive controls for each experiment was a strain of MRSA, and the negative control for each experiment was a strain of E. coli, both of which were picked at random to ensure there was no bias within the data. A 1:1 ratio of the LGX solution with PBS was also assayed as “LGX alone” sample, which has been designated as a black line on the graphs below. n=3 cultures were assayed in each case.
(§5) Clinical isolates of Methicillin Resistant Staphylococcus Aureus (MRSA), Methicillin Sensitive Staphylococcus Aureus (MSSA), Staphylococcus Epidermidis, Eschericia coli and other staphyloccal species were cultured on nutrient agar prior to being grown overnight in nutrient broth under shaking conditions at 37° C. Each sample was rinsed liberally in sterile 1×PBS and varying concentrations of bacterial suspension from […] were generated by serial dilution in 1×PBS. Additionally, bacterial cultures were furthermore maintained on nutrient agar to assess the coagulase status of the isolate.
as §3, with “2.5%. Furthermore, an appropriate concentration (100 μM and 50 μM, respectively) of human prothrombin was added to the solution. 90 μl of LGX solution in addition to each respective bacterial isolate at varying concentrations was added to a microtitre plate.” for “2.5%.”

[3] = test system: MRSA and MSSA; experiment: LGX staphylocoagulase fluorescence assay, MRSA and MSSA together; assay type: cell-based, Staphylococcus aureus
Experimental: as §1, §2, §4, §5
as §3, with “2.5%. Furthermore, an appropriate concentration (100 μM and 50 μM, respectively) of human prothrombin was added to the solution. 90 μl of LGX solution in addition to each respective bacterial isolate at varying concentrations was added to a microtitre plate.” for “2.5%.”

[4] = test system: S. warneri; experiment: LGX system, S. warneri; assay type: cell-based
Experimental: as §1
(§6) To determine the effects of varying bacterial concentrations with respect to bacterial strains and concentrations of the compounds according to the present invention on staphylocoagulase activity, 100 and 50 μM solutions containing LGX were prepared in 1×PBS with the addition of 0.05 M Tris Buffer and 0.1 M NaCl to maintain a pH of 8.5 using LGX dissolved in MeOH so that final concentration of methanol was no more than 2.5%. […]
(§7) The plate reader used was a Fluostar Optima, and the plates used were Nunclon Surface 96 well plates. […]
as §3

[5] = test system: coagulase negative staphylococci; experiment: LGX staphylocoagulase fluorescence assay, coagulase negative staphylococci panel; assay type: cell-based
Experimental: as §1, §2, §4

[6] = test system: S. hominus; experiment: LGX system, S. hominus; assay type: cell-based
Experimental: as §1, §6, §7, §3

[7] = test system: E. coli; experiment: LGX staphylocoagulase fluorescence assay, E. coli strains; assay type: cell-based; conditions: for fluorescence over the 6 hour time period: high and low concentrations
Experimental: as §1, §2, §4, §5
as §3, with “2.5%. Furthermore, an appropriate concentration (100 μM and 50 μM, respectively) of human prothrombin was added to the solution. 90 μl of LGX solution in addition to each respective bacterial isolate at varying concentrations was added to a microtitre plate.” for “2.5%.”

[8] = test system: M. luteus; experiment: LGX system, M. luteus; assay type: cell-based
Experimental: as §1, §6, §7, §3

[9] = test system: MSSA; experiment: LGX staphylocoagulase fluorescence assay, MSSA isolates; assay type: cell-based, Staphylococcus aureus
Experimental: as §1, §2, §4, §5
as §3, with “2.5%. Furthermore, an appropriate concentration (100 μM and 50 μM, respectively) of human prothrombin was added to the solution. 90 μl of LGX solution in addition to each respective bacterial isolate at varying concentrations was added to a microtitre plate.” for “2.5%.”

Structure (SMILES): CC(C)[C@H](NC(=O)OC(C)(C)C)C(=O)N1CCC[C@H]1C(=O)N[C@@H](CCCNC(=N)N)C(=O)Nc1ccc2c(c1)Oc1cc(NC(=O)[C@H](CCCNC(=N)N)NC(=O)[C@@H]3CCCN3C(=O)[C@@H](NC(=O)OC(C)(C)C)C(C)C)ccc1C21OC(=O)c2ccccc21 (stereo partly drawn) [LGX, Rho-(Arg-Pro-Val-NHBoc)2]
- fluorescence over the 6 hour time period ([1]; 50 μM LGX, FIG. 13): no increase in fluorescence was observed
- fluorescence over the 6 hour time period ([1]; 100 μM LGX, FIG. 14): no increase in fluorescence was observed
- LGX SYSTEM ([1]; S. EPIDERMIDIS): −
- samples failed to reach maximum fluorescence within the 6 hour time frame ([2]; 50 μM LGX, MRSA 10^2): 60%
- samples reaching the maximum reading of 65,000 RFU within 4 hours ([2]; 50 μM LGX, MRSA 10^2): 40%
- samples failed to reach maximum fluorescence within the 6 hour time frame ([2]; 50 μM LGX, MRSA 10^3): 40%
- samples reaching the maximum reading of 65,000 RFU within 4 hours ([2]; 50 μM LGX, MRSA 10^3): 60%
- samples failed to reach maximum fluorescence within 5 hours ([2]; 50 μM LGX, MRSA 10^5): 20%
- samples reaching the maximum reading of 65,000 RFU within 2 hours ([2]; 50 μM LGX, MRSA 10^5): 60%
- samples failed to reach maximum ([2]; 50 μM LGX, MRSA 10^6): 10%
- samples reaching the maximum reading of 65,000 RFU within 2 hours ([2]; 50 μM LGX, MRSA 10^6): 90%
- time by which maximum fluorescence level was reached, all samples ([2]; 50 μM LGX, MRSA 10^6): ≤ 2 h
- time for fluorescence readings to reach a maximum ([2]; 50 μM LGX, MRSA positive control at 10^6, 10^5 and 10^3): almost immediately or within an hour
- time for fluorescence readings to reach a maximum ([2]; 50 μM LGX, MRSA positive control, lower concentrations): 6 h
- samples achieving a fluorescence reading of 20,000 within 1 hour ([2]; 100 μM LGX, MRSA 10^2): 95%
- samples in which fluorescence reached its upper limits within 4 hours ([2]; 100 μM LGX, MRSA 10^2): 40%
- time for fluorescence to reach a maximum ([2]; 100 μM LGX, MRSA 10^2, FIG. 14): approximately 3 hours
- samples in which fluorescence reached its upper limits within 3 hours ([2]; 100 μM LGX, MRSA 10^3): 40%
- MRSA reaching maximum fluorescence over the 6 hours time period ([2]; 100 μM LGX, MRSA 10^4): 90%
- samples in which fluorescence reached its upper limits within 2 hours ([2]; 100 μM LGX, MRSA 10^4): 50%
- isolates failed to reach maximum fluorescence over 6 hours ([2]; 100 μM LGX, MRSA lower concentrations of 10^3 and 10^4 (so in the source)): 40%
- time for fluorescence to reach a maximum ([2]; 100 μM LGX, MRSA positive control, all concentrations (10^4, 10^3 and 10^3 as printed)): ≤ 3 h
- LGX SYSTEM ([2]; MRSA, detection of coagulase positive samples): +
- isolates failed to reach a fluorescence reading of 20,000 within 30 minutes ([3]; 50 μM LGX, 10^2 cell concentration of MRSA and MSSA): 20%
- isolates failed to reach a fluorescence reading of 20,000 within 30 minutes ([3]; 50 μM LGX, 10^3 cell concentration of MRSA and MSSA): 5%
- time for fluorescence to reach a maximum ([3]; 50 μM LGX, MRSA and MSSA 10^5, FIG. 13): approximately 3 hours
- fluorescence reading reached (almost instantaneous reaction) ([3]; 50 μM LGX, MRSA and MSSA 10^6, FIG. 13): 65,000 RFU
- samples above 20,000 fluorescence units after 1 hour ([3]; 50 μM LGX, all concentrations of bacteria, MRSA and MSSA): more than 80%
- samples with a fluorescence reading greater than 20,000 within 30 minutes ([3]; 100 μM LGX, 10^3 cell concentration and above): 100%
- fluorescence reading reached (almost instantaneous reaction) ([3]; 100 μM LGX, MRSA and MSSA 10^4 and 10^3, and MSSA 10^2, FIG. 14): 65,000 RFU
- response compared with 100 and 500 μM coumarin system ([3]; 100 μM LGX, MRSA and MSSA at 10^2, FIG. 12): superior response in terms of selectivity and speed
- lowest bacterial concentration at which presence of bacteria is detected ([3]; no culturing, fluorescence 525 nm (ex 488 nm)): 10^2
- sensitivity advantage over N-t-BOC-val-pro-arg-7-amido-4-methylcoumarin ([3]; response at 10^2 Staphylococcus aureus units, 525 nm (ex 488 nm)): several orders of magnitude (10^4 bacteria)
- sensitivity relative to the existing commercial dye system ([3]; staphylothrombin assay for detection of MRSA and MSSA, estimate): 10 times
- LGX SYSTEM [4]: −
- samples above 20,000 fluorescence units after 1 hour ([5]; 50 μM LGX, all concentrations of bacteria, coagulase negative staphylocci): 0%
- fluorescence over the duration of the experiment ([5]; 50 μM LGX, coagulase negative strains 10^6, 10^5, 10^3 and 10^2, FIG. 8): remain consistently low
- fluorescence response within 1 hour ([5]; 50 μM or 100 μM LGX, coagulase negative staphylococci): ≤ 5000 fluorescence units
- fluorescence across the 6 hour time period ([5]; 100 μM LGX, coagulase negative strains, FIG. 9): remained consistently low
- LGX SYSTEM [6]: −
- fluorescence over the duration of the experiment ([7]; 50 μM LGX, E. coli strains 10^6, 10^5, 10^3 and 10^2, FIG. 6): remain consistently low
- fluorescence over the 6 hour time period ([7]; 50 μM LGX, E. coli, FIG. 13): no increase in fluorescence was observed
- samples above 20,000 fluorescence units after 1 hour ([7]; 50 μM LGX, all concentrations of bacteria, E. coli): 0%
- fluorescence response within 1 hour ([7]; 50 μM or 100 μM LGX, E. coli): ≤ 5000 fluorescence units
- fluorescence across the 6 hour time period ([7]; 100 μM LGX, E. coli strains, FIG. 7): remained consistently low
- fluorescence over the 6 hour time period ([7]; 100 μM LGX, E. coli, FIG. 14): no increase in fluorescence was observed
- LGX SYSTEM ([7]; E. COLI): −
- LGX SYSTEM [8]: −
- coagulase result with LGX system [8]: negative
- samples reaching maximum fluorescence ([9]; 50 μM LGX, MSSA 10^2, 6 hours): no samples reached maximum fluorescence
- samples reaching the maximum reading of 65,000 RFU within 2.5 hours ([9]; 50 μM LGX, MSSA 10^3): 25%
- samples that had reached maximum fluorescence within 6 hours ([9]; 50 μM LGX, MSSA 10^3): 60%
- samples failed to reach maximum fluorescence within 6 hours ([9]; 50 μM LGX, MSSA 10^5): 5%
- samples reaching the maximum reading of 65,000 RFU within 2 hours ([9]; 50 μM LGX, MSSA 10^5): 75%
- time by which maximum fluorescence level was reached ([9]; 50 μM LGX, MSSA 10^6): ≤ 2 h
- samples achieving a fluorescence reading of 20,000 within 1 hour ([9]; 100 μM LGX, MSSA 10^2): 90%
- samples reached maximum fluorescence over a 6 hour time period ([9]; 100 μM LGX, MSSA 10^2): 25%
- samples reached maximum fluorescence within 2 hours ([9]; 100 μM LGX, MSSA 10^2): 5%
- samples reached maximum fluorescence within 4 hours ([9]; 100 μM LGX, MSSA 10^3): 45%
- samples in which fluorescence reached its upper limits within 1 hours ([9]; 100 μM LGX, MSSA 10^4): 70%
- samples remained below maximum fluorescence ([9]; 100 μM LGX, MSSA 10^4): 20%
- LGX SYSTEM ([9]; MSSA): +
